Results: ChEMBL document CHEMBL3259648, “Synthesis and in vitro evaluation of anti-inflammatory activity of ester and amine derivatives of indoline in RAW 264.7 and peritoneal macrophages” (Bioorg Med Chem Lett, 2014)
Activity calls are given as the source filed them. The calls are words filed in the database; no cut-off is given here.

Tests used:
RAW264.7 [1] = test: Antiinflammatory activity in mouse RAW264.7 cells assessed as reduction in LPS-induced NaNO2 release at >=1 nM treated for 30 mins prior to LPS challenge measured after 24 hrs by griess reaction assay; format: functional, cell-based
RAW264.7 [2] = test: Antiinflammatory activity in mouse RAW264.7 cells assessed as reduction in LPS-induced NaNO2 release at 1 nM treated for 30 mins prior to LPS challenge measured after 24 hrs by griess reaction assay relative to budesonide; format: functional
RAW264.7 [3] = test: Antiinflammatory activity in mouse RAW264.7 cells assessed as reduction in LPS-induced NaNO2 release at 1 nM treated for 30 mins prior to LPS challenge measured after 24 hrs by griess reaction assay relative to melatonin; format: functional
[4] = system: Peritoneal macrophage cell; test: Antiinflammatory activity in C57bl/6 mouse peritoneal macrophages assessed as reduction in LPS-induced TNF-alpha production at >=10 pM treated for 30 mins prior to LPS challenge measured after 6 hrs by ELISA; format: functional, cell-based
[5] = system: Peritoneal macrophage cell; test: Antiinflammatory activity in C57bl/6 mouse peritoneal macrophages assessed as reduction in LPS-induced IL-6 production at >=10 nM treated for 30 mins prior to LPS challenge measured after 24 hrs by ELISA; format: functional, cell-based
RAW264.7 [6] = test: Cytotoxicity against mouse RAW264.7 cells assessed as cell viability at 10 pM to 10 uM by MTT assay; format: cell-based
[7] = Cytotoxicity against C57bl/6 mouse peritoneal macrophages assessed as cell viability at 10 pM to 10 uM by MTT assay; format: cell-based; conditions: peritoneal macrophage cell
Acetylcholinesterase = target: T1, Acetylcholinesterase (Bos taurus, UniProt P23795); test: Inhibition of AChE in bovine erythrocytes using acetylthiocholine iodide as substrate by Ellman's method
T1 sequence (P23795 whole entry): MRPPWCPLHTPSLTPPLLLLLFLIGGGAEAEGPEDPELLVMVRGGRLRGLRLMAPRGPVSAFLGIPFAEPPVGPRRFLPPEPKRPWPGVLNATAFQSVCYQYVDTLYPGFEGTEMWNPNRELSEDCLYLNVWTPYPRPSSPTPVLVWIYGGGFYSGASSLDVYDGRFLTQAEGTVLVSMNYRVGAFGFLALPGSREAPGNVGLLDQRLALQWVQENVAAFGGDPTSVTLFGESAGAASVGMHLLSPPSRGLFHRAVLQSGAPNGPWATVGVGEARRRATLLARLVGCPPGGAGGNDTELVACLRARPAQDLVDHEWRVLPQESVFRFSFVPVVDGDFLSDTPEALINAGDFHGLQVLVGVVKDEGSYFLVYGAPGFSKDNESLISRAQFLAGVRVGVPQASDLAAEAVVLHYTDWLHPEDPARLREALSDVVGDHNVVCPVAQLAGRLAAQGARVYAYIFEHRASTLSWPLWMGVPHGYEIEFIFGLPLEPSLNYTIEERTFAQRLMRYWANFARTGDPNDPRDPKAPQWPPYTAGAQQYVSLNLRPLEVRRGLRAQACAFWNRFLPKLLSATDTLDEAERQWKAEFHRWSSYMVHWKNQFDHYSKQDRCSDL

Cholinesterase = Cholinesterase (Equus caballus, UniProt P81908); test: Inhibition of BuChE in equine serum using butylthiocholine iodide as substrate by Ellman's method
Sequence of Cholinesterase (P81908 whole entry): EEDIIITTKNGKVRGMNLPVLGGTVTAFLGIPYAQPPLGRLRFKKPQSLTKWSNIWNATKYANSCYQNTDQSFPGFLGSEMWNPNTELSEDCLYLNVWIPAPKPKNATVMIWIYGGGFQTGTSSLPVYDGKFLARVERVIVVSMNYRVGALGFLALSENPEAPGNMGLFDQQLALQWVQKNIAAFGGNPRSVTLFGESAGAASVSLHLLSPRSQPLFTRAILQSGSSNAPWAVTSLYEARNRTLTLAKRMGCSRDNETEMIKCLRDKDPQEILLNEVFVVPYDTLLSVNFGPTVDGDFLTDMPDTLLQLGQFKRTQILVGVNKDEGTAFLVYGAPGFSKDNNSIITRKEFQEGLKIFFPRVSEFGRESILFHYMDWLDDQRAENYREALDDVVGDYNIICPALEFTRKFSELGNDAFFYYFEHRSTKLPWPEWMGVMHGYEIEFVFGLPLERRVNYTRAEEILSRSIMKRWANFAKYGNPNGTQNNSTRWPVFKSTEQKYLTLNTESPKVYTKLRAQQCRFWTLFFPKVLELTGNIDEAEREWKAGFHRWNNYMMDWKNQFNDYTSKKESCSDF

RAW264.7 [8] = test: Antiinflammatory activity in mouse RAW264.7 cells assessed as reduction in LPS-induced NaNO2 release at >=10 pM treated for 30 mins prior to LPS challenge measured after 24 hrs by griess reaction assay; format: functional, cell-based
RAW264.7 [9] = test: Antiinflammatory activity in mouse RAW264.7 cells assessed as reduction in LPS-induced NaNO2 release at 10 pM treated for 30 mins prior to LPS challenge measured after 24 hrs by griess reaction assay relative to budesonide; format: functional
RAW264.7 [10] = test: Antiinflammatory activity in mouse RAW264.7 cells assessed as reduction in LPS-induced NaNO2 release at 10 pM treated for 30 mins prior to LPS challenge measured after 24 hrs by griess reaction assay relative to melatonin; format: functional
[11] = system: Peritoneal macrophage cell; test: Antiinflammatory activity in C57bl/6 mouse peritoneal macrophages assessed as reduction in LPS-induced TNF-alpha production at >=1 pM treated for 30 mins prior to LPS challenge measured after 6 hrs by ELISA; format: functional, cell-based
[12] = system: Peritoneal macrophage cell; test: Antiinflammatory activity in C57bl/6 mouse peritoneal macrophages assessed as reduction in LPS-induced IL-6 production at >=10 pM treated for 30 mins prior to LPS challenge measured after 24 hrs by ELISA; format: functional, cell-based
[13] = target: MAP kinase p38 (Mus musculus) (UniProt P47811+O08911+Q9WUI1+Q9Z1B7); test: Inhibition of p38 phosphorylation in LPS-activated C57bl/6 mouse peritoneal macrophages at 0.1 nM treated for 30 mins prior to LPS challenge by immunoblot analysis
Mus musculus [14] = organism: Mus musculus; test: Inhibition of ERK phosphorylation in LPS-activated C57bl/6 mouse peritoneal macrophages at 0.1 nM treated for 30 mins prior to LPS challenge by immunoblot analysis
Mus musculus [15] = organism: Mus musculus; test: Inhibition of JNK phosphorylation in LPS-activated C57bl/6 mouse peritoneal macrophages at 0.1 nM treated for 30 mins prior to LPS challenge by immunoblot analysis
[16] = target: T2, Inhibitor of nuclear factor kappa-B kinase subunit alpha (Mus musculus) (UniProt Q60680); test: Inhibition of IkappaB alpha degradation in LPS-activated C57bl/6 mouse peritoneal macrophages at 0.1 nM treated for 30 mins prior to LPS challenge by immunoblot analysis
T2 sequence (whole entry): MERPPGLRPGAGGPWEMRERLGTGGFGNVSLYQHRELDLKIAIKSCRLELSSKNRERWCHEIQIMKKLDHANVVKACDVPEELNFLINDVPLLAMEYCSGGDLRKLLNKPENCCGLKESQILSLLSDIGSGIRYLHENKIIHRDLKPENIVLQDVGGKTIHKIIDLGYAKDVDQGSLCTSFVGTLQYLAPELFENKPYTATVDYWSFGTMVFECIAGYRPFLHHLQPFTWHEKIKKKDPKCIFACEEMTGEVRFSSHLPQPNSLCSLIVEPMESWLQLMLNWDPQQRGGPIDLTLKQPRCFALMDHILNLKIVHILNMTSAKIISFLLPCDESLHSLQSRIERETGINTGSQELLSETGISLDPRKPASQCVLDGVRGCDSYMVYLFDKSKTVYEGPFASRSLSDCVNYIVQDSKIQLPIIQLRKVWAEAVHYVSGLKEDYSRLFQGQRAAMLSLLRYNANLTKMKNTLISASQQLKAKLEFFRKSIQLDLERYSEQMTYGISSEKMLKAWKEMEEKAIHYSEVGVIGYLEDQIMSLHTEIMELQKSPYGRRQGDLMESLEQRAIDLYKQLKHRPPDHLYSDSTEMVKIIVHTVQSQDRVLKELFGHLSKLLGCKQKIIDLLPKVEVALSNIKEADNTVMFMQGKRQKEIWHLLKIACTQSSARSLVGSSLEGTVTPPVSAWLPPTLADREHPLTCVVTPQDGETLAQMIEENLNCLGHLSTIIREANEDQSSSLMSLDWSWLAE

[17] = system: Peritoneal macrophage cell; test: Antiinflammatory activity in C57bl/6 mouse peritoneal macrophages assessed as reduction in LPS-induced TNF-alpha production at >=1 uM treated for 30 mins prior to LPS challenge measured after 6 hrs by ELISA; format: functional, cell-based
[18] = system: Peritoneal macrophage cell; test: Antiinflammatory activity in C57bl/6 mouse peritoneal macrophages assessed as reduction in LPS-induced TNF-alpha production at >=10 nM treated for 30 mins prior to LPS challenge measured after 6 hrs by ELISA; format: functional, cell-based
[19] = system: Peritoneal macrophage cell; test: Antiinflammatory activity in C57bl/6 mouse peritoneal macrophages assessed as reduction in LPS-induced IL-6 production at >=1 nM treated for 30 mins prior to LPS challenge measured after 24 hrs by ELISA; format: functional, cell-based

| SMILES | inhibition (RAW264.7 [1]) | fold change (FC) (RAW264.7 [2]) | fold change (FC) (RAW264.7 [3]) | inhibition [4] | inhibition [5] | Activity (RAW264.7 [6]) | Activity [7] | IC50 (Acetylcholinesterase) | IC50 (Cholinesterase) | inhibition (RAW264.7 [8]) | fold change (FC) (RAW264.7 [9]) | fold change (FC) (RAW264.7 [10]) | inhibition [11] | inhibition [12] | also measured |
| --- | --- | --- | --- | --- | --- | --- | --- | --- | --- | --- | --- | --- | --- | --- | --- |
| CCN(C)C(=O)Oc1ccc2c(c1)N(CCCN(C)C)CC2.Cl | Active | 10 | 100 | Active | Active | Non-toxic | Non-toxic | 48000 nM | 4270 nM | – | – | – | – | – | – |
| CCN(C)C(=O)Oc1ccc2c(c1)NCC2CCN(C)C.Cl (stereo not given) | Active | 10 | 100 | Active | Active | Non-toxic | Non-toxic | 21300 nM | 2200 nM | – | – | – | – | – | – |
| CCN(C)C(=O)Oc1cccc2c1C(CCC(=O)OC)CN2.Cl (stereo not given) | – | – | – | – | – | Non-toxic | Non-toxic | – | 300 nM | Active | 10 | 100 | Active | Active | inhibition [13]: Active; inhibition (Mus musculus [14]): inactive; inhibition (Mus musculus [15]): inactive; inhibition [16]: Active |
| CCN(C)C(=O)Oc1ccc2c(c1)N(CCC(=O)OC)CC2.Cl | – | – | – | – | Active | Non-toxic | Non-toxic | – | 6780 nM | – | – | – | – | – | inhibition [17]: Active |
| CCN(C)C(=O)Oc1cccc2c1C(CCN(C)C)CN2.Cl (stereo not given) | – | – | – | Active | Active | Non-toxic | Non-toxic | 1300 nM | 310 nM | Active | 10 | 100 | – | – | – |
| CCN(C)C(=O)Oc1cccc2c1CCN2CCCN(C)C.Cl | Active | 10 | 100 | Active | Active | Non-toxic | Non-toxic | 3700 nM | 900 nM | – | – | – | – | – | – |
| CCN(C)C(=O)Oc1cccc2c1CCN2CCC(=O)OC.Cl | – | – | – | – | Active | Non-toxic | Non-toxic | – | 700 nM | Active | 10 | 100 | – | – | inhibition [18]: Active |
| CCN(C)C(=O)Oc1ccc2c(c1)NCC2CCC(=O)OC.Cl (stereo not given) | – | – | – | – | – | Non-toxic | Non-toxic | – | 3900 nM | Active | 10 | 100 | Active | – | inhibition [19]: Active |
| CCN(C)C(=O)Oc1cccc2c1C(CCN)CN2.Cl.Cl (stereo not given) | – | – | – | – | – | Non-toxic | Non-toxic | – | 200 nM | Active | 10 | 100 | Active | Active | – |
| CCN(C)C(=O)Oc1cccc2c1C(CCCN)CN2.Cl (stereo not given) | Active | 10 | 100 | – | – | Non-toxic | Non-toxic | 1800 nM | 1200 nM | – | – | – | Active | Active | – |
| CCN(C)C(=O)Oc1ccc2c(c1)NCC2CCCN.Cl (stereo not given) | Active | 10 | 100 | – | – | Non-toxic | Non-toxic | 36000 nM | 4700 nM | – | – | – | Active | Active | – |
